Source: patent US10584105B2, “Immunoproteasome inhibitor analogs” (The Regents of the University of California, priority 2016, dated 2020)

Columns and labels:
[1] = system: SK—N—SH neuroblastoma cells; assay: Cell viability assay (MTS), SK—N—SH neuroblastoma cells; type: cell-based, human; details: for effect on viability of SK—N—SH cells: highest concentration tested (1 μM), 24 hours exposure
Experimental: (§1) (A) MYCN2, (B) SK—N—Be(2)c, and (C) SK—N—SH neuroblastoma cells were treated with 1 (NAM-105), 5 (NAM-93), or 6 (NAM-95) for 24 hours at three different concentrations (0.01, 0.1, and 1 μM). Bortezomib (BTZ) was included as a control. Cell viability was measured using the MTS reagent as described in the Methods section. Data shown are representative of two independent experiments, each performed in triplicate wells (n=6).
(§2) To determine the effect of the thiasyrbactins proteasome inhibitors on the viability of cancer cells, three different human neuroblastoma (NB) cell lines were used. BTZ was included as a control. SK—N—Be2c, SK—N—SH cells (ATCC, Manassas, Va.) and MYCN2 cells were plated overnight in RPMI media containing 10% heat-inactivated fetal bovine serum (FBS) (Invitrogen, Carlsbad, Calif., USA), supplemented with penicillin (100 U/ml) and streptomycin (100 μg/ml). Cells were cultured at 37° C. in a humidified atmosphere containing 5% CO2 and treated with 0.01, 0.1 and 1 μM proteasome inhibitor for 24 hours. Cell viability was determined using the Cell Titer 96 AQueous One Cell Proliferation Assay (Promega) reagent MTS by measuring absorbance at 490 nm using a Multi-Mode Synergy plate reader as Ibarra-Rivera et al. Assays were done in duplicate with triplicate wells of treatment per experiment (n=6). Data were expressed as the average cell viability relative to untreated control cells using Microsoft Excel™.

[2] = system: MYCN2 neuroblastoma cells; assay: Cell viability assay (MTS), MYCN2 neuroblastoma cells; type: cell-based, human; details: for effect on viability of MYCN2 cells: highest concentration tested (1 μM), 24 hours exposure
Experimental: as §1, §2

[3] = target: T1, immunoproteasome from human peripheral blood mononuclear cells (PBMCs), C-L (β1) activity (Homo sapiens, UniProt P28065); assay: In vitro proteasome activity assay, immunoproteasome, C-L (β1); type: biochemical
T1 construct: purchased Boston Biochem; host or cells: human peripheral blood mononuclear cells (native, purified)
Experimental: (§3) To determine the anti-proteasome activity of the thiasyrbactins in the in vitro environment, three catalytic activities (β1, β2, β5) of the proteasome were measured as described in Ibarra-Rivera et al., Tetrahedron 67:9950-6 (2011)). […] Purified 20S constitutive proteasome from human erythrocytes or immunoproteasome from human peripheral blood mononuclear cells (PBMCs) (Boston Biochem, Cambridge, Mass.) and luminogenic substrates Z-LRR-Glo, Z-nLPnLD-Glo, and Suc-LLVY-Glo (Promega, Fitchburg, Wis.) specific for the β1, β2, and β5 (also referred to as T-L, C-L, and CT-L) catalytic subunit activities, respectively, were used. […] Equal volume of the appropriate luminogenic substrate was added to each reaction and luminescence was measured 10 minutes later using a Multi-Mode Synergy (Biotek, Inc., Winooski, Vt.) plate reader. […] The Ki-50 values for each catalytic activity were determined for each of the inhibitors using Graphpad Prism 5 software (La Jolla, Calif.) and averaged using Microsoft Excel (Redmond, Wash.).
(§4) The thiasyrbactins were evaluated for their ability to inhibit each of the catalytic subunits of the constitutive and immunoproteasomes as well as for cytotoxic activity against neuroblastoma cancer cells. […]

[4] = target: T2, 20S constitutive proteasome from human erythrocytes, CT-L (β5) activity (Homo sapiens, UniProt P20618+P28074); assay: In vitro proteasome activity assay, constitutive proteasome, CT-L (β5); type: biochemical; details: 1 μM
T2 construct: purchased Boston Biochem; host or cells: human erythrocytes (native, purified)
Experimental: as §3, §4

[5] = system: U266 multiple myeloma (MM) cells; assay: Cell viability (MTS), U266 multiple myeloma cells; type: cell-based; details: Homo sapiens, U-266; 24 hours, MTS assay, N=3; read-out: IC-50 cell viability U266 cells
Experimental: (§5) N=3. Cells were incubated for 24 hours in the presence of 1 (NAM-105), 5 (NAM-93), 6 (NAM-95) or DMSO (control) and cell viability measured using the MTS assay. IC-50s for ARD cells are 4.085±0.865 μM (5, NAM-93), N/A (6, NAM-95), and 1.673±0.337 μM (1, NAM-105). IC-50 for U266 cells are 3.308±0.916 μM (5, NAM-93), N/A (6, NAM-95), and 1.474±0.577 μM (1, NAM-105). N/A; not applicable (50% inhibition not reached at tested concentrations).

[6] = system: ARD multiple myeloma (MM) cells; assay: Cell viability (MTS), ARD multiple myeloma cells; type: cell-based; details: Homo sapiens, 24 hours, MTS assay, N=3, read-out: IC-50 cell viability ARD cells
Experimental: as §5

[7] = target: T3, immunoproteasome from human peripheral blood mononuclear cells (PBMCs), CT-L (β5) activity (Homo sapiens, UniProt P20618+P28062); assay: In vitro proteasome activity assay, immunoproteasome, CT-L (β5); type: biochemical; details: for effect on CT-L activity of the immunoproteasome: at ≤10 μM; for effect on CT-L (chymotrypsin-like) activity of the immunoproteasome (FIG. 5): 1.0 μM, 2 hours
T3 construct: purchased Boston Biochem; host or cells: human peripheral blood mononuclear cells (native, purified)
Experimental: To determine the anti-proteasome activity of the thiasyrbactins in the in vitro environment, three catalytic activities (β1, β2, β5) of the proteasome were measured as described in Ibarra-Rivera et al., Tetrahedron 67:9950-6 (2011)). […] Purified 20S constitutive proteasome from human erythrocytes or immunoproteasome from human peripheral blood mononuclear cells (PBMCs) (Boston Biochem, Cambridge, Mass.) and luminogenic substrates Z-LRR-Glo, Z-nLPnLD-Glo, and Suc-LLVY-Glo (Promega, Fitchburg, Wis.) specific for the β1, β2, and β5 (also referred to as T-L, C-L, and CT-L) catalytic subunit activities, respectively, were used. Briefly, 2.2 ng/μL of constitutive proteasome and immunoproteosome were incubated with increasing concentration of proteasome inhibitor (0 to 10 μM) in 10 mM HEPES, pH 7.3, for two hours at 37° C. Equal volume of the appropriate luminogenic substrate was added to each reaction and luminescence was measured 10 minutes later using a Multi-Mode Synergy (Biotek, Inc., Winooski, Vt.) plate reader. Assays were done in triplicate (n=3). The Ki-50 values for each catalytic activity were determined for each of the inhibitors using Graphpad Prism 5 software (La Jolla, Calif.) and averaged using Microsoft Excel (Redmond, Wash.).
The thiasyrbactins were evaluated for their ability to inhibit each of the catalytic subunits of the constitutive and immunoproteasomes as well as for cytotoxic activity against neuroblastoma cancer cells. To test the inhibitory activity of 1 (NAM-105), 5 (NAM-93), and 6 (NAM-95), an in vitro assay was performed to test the effect of the thiasyrbactins on the three sub-catalytic activities (i.e., the CT-L, C-L, and T-L activities) of the constitutive proteasome and the immunoproteasome (Table 5).

[8] = system: SK—N—Be(2)c neuroblastoma cells; assay: Cell viability assay (MTS), SK—N—Be(2)c neuroblastoma cells; type: cell-based, human; details: highest concentration tested (1 μM), 24 hours exposure
Experimental: as §1
as §2, with “Cells were cultured at 37° C. in a humidified atmosphere containing 5% CO2 and treated with 0.01, 0.1 and 1 μM proteasome inhibitor for 24 hours.” left out

[9] = target: T4, immunoproteasome from human peripheral blood mononuclear cells (PBMCs), T-L (β2) activity (Homo sapiens, UniProt P40306+P49720); assay: In vitro proteasome activity assay, immunoproteasome, T-L (β2); type: biochemical; details: 1 μM
T4 construct: purchased Boston Biochem; host or cells: human peripheral blood mononuclear cells (native, purified)
Experimental: as §3, §4

| effect on C-L activity of the immunoproteasome [3] | IC50 [5] [µM] | IC50 [6] [µM] | effect on CT-L activity of the immunoproteasome [7] | inhibition vs. the trypsin-like activity of the immunoproteasome (screen, FIG. 5) [9] | effect on CT-L (chymotrypsin-like) activity of the immunoproteasome (FIG. 5) [7] | SMILES | effect on viability of SK—N—SH cells [1] | effect on viability of MYCN2 cells [2] | effect on viability of SK—N—Be(2)c cells [8] | other results |
| --- | --- | --- | --- | --- | --- | --- | --- | --- | --- | --- |
| no effect | 3.31 ± 0.916 | 4.08 ± 0.865 | no effect | good inhibition | stimulate | CC(C)Cc1ccc([C@H](C)C(=O)N[C@H](C(=O)N[C@H]2CSCCNC(=O)/C=C/[C@H](C)NC2=O)C(C)C)cc1 [Compound 5, (S)-2-((S)-2-(4-Isobutylphenyl)propanamido)-3-methyl-N-((8S,11R,E)-8-methyl-5,10-dioxo-1-thia-4,9-diazacyclododec-6-en-11-yl)butanamide] | minimal effects | minimal effects | minimal effects | – |
| – | – | – | – | good inhibition | stimulate | CC(C)[C@H](NC(=O)c1cnccn1)C(=O)N[C@H]1CSCCNC(=O)/C=C/[C@H](C)NC1=O [Compound 6, N—((S)-3-Methyl-1-(((8S,11R,E)-8-methyl-5,10-dioxo-1-thia-4,9-diazacyclododec-6-en-11-yl)amino)-1-oxobutan-2-yl)pyrazine-2-carboxamide] | – | – | – | – |

The next lines start with the compound.

| SMILES | effect on C-L activity of the immunoproteasome [3] | IC50 [5] [µM] | IC50 [6] [µM] | effect on CT-L activity of the immunoproteasome [7] | inhibition vs. the trypsin-like activity of the immunoproteasome (screen, FIG. 5) [9] | effect on CT-L (chymotrypsin-like) activity of the immunoproteasome (FIG. 5) [7] | effect on viability of SK—N—SH cells [1] | effect on viability of MYCN2 cells [2] | effect on viability of SK—N—Be(2)c cells [8] | other results |
| --- | --- | --- | --- | --- | --- | --- | --- | --- | --- | --- |
| CC(C)C[C@H](NC(=O)[C@H](Cc1ccccc1)NC(=O)c1cnccn1)B(O)O [BTZ, bortezomib, reference compound] | – | – | – | – | – | – | – | – | – | cytotoxic effects in SK—N—SH cells ([1]; 0.1-1 μM, 24 hours): strong cytotoxic effects; cytotoxic effects in MYCN2 cells ([2]; 0.1-1 μM, 24 hours): strong cytotoxic effects |
| CCCCCCCCCCCCNC(=O)N[C@H](C(=O)N[C@H]1CSCCNC(=O)/C=C/[C@H](C)NC1=O)C(C)C [Compound 1, (S)-2-(3-Dodecylureido)-3-methyl-N-((8S,11R,E)-8-methyl-5,10-dioxo-1-thia-4,9-diazacyclododec-6-en-11-yl)butanamide] | no effect | 1.47 ± 0.577 | 1.67 ± 0.337 | no effect | – | – | – | – | – | activity vs. the chymotrypsin-like activity of the constitutive proteasome (screen, FIG. 5) [4]: greatest activity; viability of SK—N—SH cells, % of control (DMSO) ([1]; 24 hours, of control (DMSO)): 30-50%; viability of MYCN2 cells, % of control (DMSO) ([2]; 24 hours, of control (DMSO)): 30-50% |
| CCCCCCCCCCCCNC(=O)N[C@H](C(=O)N[C@H]1C[S+]([O-])CCNC(=O)/C=C/[C@H](C)NC1=O)C(C)C (stereo partly drawn) [Compound 2, (2S)-2-(3-Dodecylureido)-3-methyl-N-((8S,11R,E)-8-methyl-1-oxido-5,10-dioxo-1-thia-4,9-diazacyclododec-6-en-11-yl)butanamide] | – | – | – | – | – | – | minimal effects | minimal effects | minimal effects | – |
